One experiment relates to BaF3 wild-type cells. Briefly: Cellular screening, BaF3 wild-type cells, Alamar Blue. It is filed as cell-based. Particulars: Mus musculus, 40 hr, read-out: BAF3wt IC50_nM. Summed up:
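Compounds, screened from dilution plates at 20 μM, were added as 10× final stocks to cells grown in DMEM/10% FCS/10% WEHI 3B conditioned medium. Cells were seeded at 1.1× final (50,000–200,000 cells/mL) and incubated 40 hr at 37° C, 5% CO2. Viability was read at 544 nm after a further 4–6 hours with Alamar Blue.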
For orientation: The colour change of resazurin is a common sign of viable cells or microbes.

The target in another experiment is T1, human JAK3 (Homo sapiens, UniProt P52333).
T1 construct: The kinase domain of human JAK3 was amplified; GST (N); made in house; host or cells: Sf9 insect cells (baculovirus)
Briefly: Alphascreen tyrosine kinase enzyme assay, JAK3 kinase domain. The class given is biochemical. Particulars: read-out: JAK3 IC50_nM. In a few lines:
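GST-affinity-purified human JAK3 kinase domain (baculovirus/Sf9) was pre-incubated 20 min with compound ([…]) in HEPES pH 7.5 buffer with MgCl2, vanadate and Tween 20. Biotinylated peptide substrate ([…]) and ATP were then added; phosphotyrosine was detected by AlphaScreen PY100 acceptor and streptavidin donor beads after 2–3 h.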

For a further experiment, the target named is T2, human JAK2 (Homo sapiens, UniProt O60674).
T2 construct: The kinase domain of human JAK2 was amplified; GST (N); made in house; host or cells: Sf9 insect cells (baculovirus)
Briefly: Alphascreen tyrosine kinase enzyme assay, JAK2 kinase domain. As to conditions: read-out: JAK2 IC50_nM. The class given is biochemical. In a few lines:
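JAK2 kinase domain expressed in baculovirus/Sf9 and glutathione-affinity purified. Compounds (final […]) pre-incubated 20 min with enzyme in 10 mM HEPES pH 7.5, MgCl2, NaCl, vanadate, 0.1% Tween 20.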

Molecules are shown by their SMILES. A value given as a limit tells only on which side of the number the result lay.

T1 sequence (P52333 822-1111 limits assumed): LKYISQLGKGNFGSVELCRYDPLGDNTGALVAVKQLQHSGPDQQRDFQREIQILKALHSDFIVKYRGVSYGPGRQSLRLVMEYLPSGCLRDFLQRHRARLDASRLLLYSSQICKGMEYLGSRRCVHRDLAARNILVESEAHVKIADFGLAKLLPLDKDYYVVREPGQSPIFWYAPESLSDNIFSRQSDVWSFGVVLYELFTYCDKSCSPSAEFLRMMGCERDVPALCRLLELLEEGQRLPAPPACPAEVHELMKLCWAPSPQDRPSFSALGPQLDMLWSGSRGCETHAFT
T2 sequence (O60674 849-1124 limits assumed): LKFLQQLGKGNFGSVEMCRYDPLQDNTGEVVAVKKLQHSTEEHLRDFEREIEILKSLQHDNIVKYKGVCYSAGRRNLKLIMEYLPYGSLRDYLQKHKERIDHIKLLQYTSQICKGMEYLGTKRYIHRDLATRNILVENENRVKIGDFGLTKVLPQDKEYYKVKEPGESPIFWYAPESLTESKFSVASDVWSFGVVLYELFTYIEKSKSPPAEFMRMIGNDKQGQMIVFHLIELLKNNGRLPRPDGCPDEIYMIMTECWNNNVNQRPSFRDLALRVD

For the compound `C=CC(=O)Nc1cccc(Nc2nccc(Sc3cccc(OC)c3)n2)c1` [Compound 31, N-(3-(4-(3-methoxyphenylthio)pyrimidin-2-ylao)phenyl)acrylamide], the IC50 in the experiment with BaF3 wild-type cells was less than 20000 nM; at human JAK3, less than 100 nM; at human JAK2 it was more than 1000 nM.

With `COc1cc(Nc2nccc(Sc3ccc(NCC#N)cc3)n2)cc(OC)c1OC` [Compound 52, 2-(4-(2-(3,4,5-trimethoxyphenylao)pyrimidin-4-ylthio)phenylao)acetonitrile], at human JAK2, the IC50 was more than 1000 nM.

On to `CC(=O)Nc1ccc(Sc2ccnc(Nc3ccc(N4CCC(N5CCCC5)CC4)cc3)n2)cc1` [Compound 86, N-(4-(2-(4-(4-(pyrrolidin-1-yl)piperidin-1-yl)phenylao)pyrimidin-4-ylthio)phenyl)acetamide], for which the values for the IC50 with BaF3 wild-type cells, on human JAK3 and on human JAK2 were less than 5000 nM, less than 500 nM and more than 1000 nM, respectively.

As to `N#CCC(=O)Nc1ccc(Sc2ccnc(Nc3ccc(N4CCC(N5CCCC5)CC4)cc3)n2)cc1` [Compound 88, 2-cyano-N-(4-(2-(4-(4-(pyrrolidin-1-yl)piperidin-1-yl)phenylao)pyrimidin-4-ylthio)phenyl)acetamide], the figures for the IC50 in the experiment on BaF3 wild-type cells, at human JAK3 and at human JAK2 were less than 5000 nM, less than 500 nM and more than 1000 nM, respectively.

For the compound `C=CC(=O)N(C)c1ccc(Sc2ccnc(Nc3ccc(N4CCOCC4)cc3)n2)cc1` [Compound 91, N-methyl-N-(4-(2-(4-morpholinophenylao)pyrimidin-4-ylthio)phenyl)acrylamide], the IC50 is more than 20000 nM with BaF3 wild-type cells, less than 100 nM on human JAK3 and more than 1000 nM on human JAK2.

As for `COc1ccc(Nc2nccc(Sc3ccc(NC(=O)CC#N)cc3)n2)cc1OC` [Compound 101, 2-cyano-N-(4-(2-(3,4-dimethoxyphenylao)pyrimidin-4-ylthio)phenyl)acetamide], the IC50 is less than 1000 nM with BaF3 wild-type cells, more than 1000 nM on human JAK3 and more than 1000 nM on human JAK2.

For `COc1cc(Sc2ccnc(Nc3ccc(N4CCOCC4)cc3)n2)ccc1N` [Compound 117, 4-(4-ao-3-methoxyphenylthio)-N-(4-morpholinophenyl)pyrimidin-2-ae], the IC50 with BaF3 wild-type cells is less than 5000 nM; on human JAK3 it was less than 500 nM; at human JAK2, more than 1000 nM.

For `c1cn(Cc2ccc(Sc3ccnc(Nc4ccc(N5CCOCC5)cc4)n3)cc2)cn1` [Compound 127, 4-(4-((1H-imidazol-1-yl)methyl)phenylthio)-N-(4-morpholinophenyl)pyrimidin-2-ae], the IC50 is more than 20000 nM in the experiment on BaF3 wild-type cells, less than 500 nM at human JAK3 and less than 1000 nM at human JAK2.

Turning to `Cc1cnc(Nc2ccc(N3CCOCC3)cc2)nc1Sc1ccc(C#N)cc1` [Compound 136, 4-(5-methyl-2-(4-morpholinophenylao)pyrimidin-4-ylthio)benzonitrile], the IC50 is more than 20000 nM in the experiment with BaF3 wild-type cells, less than 500 nM at human JAK3 and more than 1000 nM on human JAK2.

Regarding `CCOC(=O)c1nccn1Cc1ccc(Sc2ccnc(Nc3ccc(N4CCOCC4)cc3)n2)cc1` [Compound 148, ethyl 1-(4-(2-(4-morpholinophenylao)pyrimidin-4-ylthio)benzyl)-1H-imidazole-2-carboxylate], the IC50 in the experiment with BaF3 wild-type cells is less than 20000 nM; at human JAK3, less than 500 nM; on human JAK2, more than 1000 nM.

Consider `NC(=O)c1nccn1Cc1ccc(Sc2ccnc(Nc3ccc(N4CCOCC4)cc3)n2)cc1` [Compound 149, 1-(4-(2-(4-morpholinophenylao)pyrimidin-4-ylthio)benzyl)-1H-imidazole-2-carboxamide], for which the IC50 was less than 5000 nM in the experiment with BaF3 wild-type cells, less than 500 nM at human JAK3 and more than 1000 nM on human JAK2.

As for `N#Cc1nccc(Sc2ccc(Sc3ccnc(Nc4ccc(N5CCOCC5)cc4)n3)cc2)n1` [Compound 154, 4-(4-(2-(4-morpholinophenylao)pyrimidin-4-ylthio)phenylthio)pyrimidine-2-carbonitrile], the IC50 with BaF3 wild-type cells was less than 5000 nM; at human JAK3, less than 500 nM; on human JAK2, more than 1000 nM.

With `Cc1cnc(Nc2ccc(N3CCOCC3)cc2)nc1Sc1ccc2c(c1)CCCN2` [Compound 166, 5-methyl-N-(4-morpholinophenyl)-4-(1,2,3,4-tetrahydroquinolin-6-ylthio)pyrimidin-2-ae], the figures for the IC50 with BaF3 wild-type cells, at human JAK3 and at human JAK2 were less than 20000 nM, less than 500 nM and more than 1000 nM, respectively.

As for `C=CC(=O)Nc1ccc(Sc2nc(Nc3ccc(N4CCOCC4)cc3)ncc2C)c(Cl)c1C` [Compound 171, N-(3-chloro-2-methyl-4-(5-methyl-2-(4-morpholinophenylao)pyrimidin-4-ylthio)phenyl)acrylamide], the IC50 in the experiment with BaF3 wild-type cells was more than 20000 nM; at human JAK3, less than 100 nM; at human JAK2, more than 1000 nM.

On to `CSc1nc(Nc2ccc(N3CCOCC3)cc2)ncc1C` [Compound 176, 5-methyl-4-(methylthio)-N-(4-morpholinophenyl)pyrimidin-2-ae], for which the figures for the IC50 with BaF3 wild-type cells, on human JAK3 and at human JAK2 were less than 5000 nM, less than 1000 nM and less than 1000 nM, respectively.

Consider `Cc1cnc(Nc2ccc(N3CCOCC3)cc2)nc1Sc1ccc(NC(=O)COCC(=O)O)cc1` [Compound 188, 2-(2-(4-(5-methyl-2-(4-morpholinophenylao)pyrimidin-4-ylthio)phenylao)-2-oxoethoxy)acetic acid], for which the IC50 with BaF3 wild-type cells was more than 20000 nM; on human JAK3, less than 100 nM; at human JAK2 it was less than 500 nM.

Consider `COC(=O)COCC(=O)Nc1ccc(Sc2nc(Nc3ccc(N4CCOCC4)cc3)ncc2C)cc1` [Compound 189, methyl 2-(2-(4-(5-methyl-2-(4-morpholinophenylao)pyrimidin-4-ylthio)phenylao)-2-oxoethoxy)acetate], for which the IC50 in the experiment on BaF3 wild-type cells was less than 20000 nM; on human JAK3, less than 500 nM; at human JAK2 it was more than 1000 nM.

`C=CC(=O)Nc1ccc(Sc2ccnc(Nc3ccccc3O)n2)cc1` [Compound 279, N-(4-(2-(2-hydroxyphenylao)pyrimidin-4-ylthio)phenyl)acrylamide]: the IC50 with BaF3 wild-type cells was less than 20000 nM; on human JAK3 it was less than 100 nM; at human JAK2 it was more than 1000 nM.

In the case of `C=CC(=O)Nc1ccc(Sc2nc(Nc3cccc(O)c3)ncc2C)cc1` [Compound 281, N-(4-(2-(3-hydroxyphenylao)-5-methylpyrimidin-4-ylthio)phenyl)acrylamide], the IC50 was less than 20000 nM with BaF3 wild-type cells, less than 100 nM on human JAK3 and more than 1000 nM on human JAK2.

In the case of `C=CC(=O)Nc1ccc(Sc2nc(Nc3ccc(O)cc3)ncc2C)cc1` [Compound 282, N-(4-(2-(4-hydroxyphenylao)-5-methylpyrimidin-4-ylthio)phenyl)acrylamide], the IC50 in the experiment with BaF3 wild-type cells was less than 20000 nM; on human JAK3, less than 100 nM; at human JAK2, more than 1000 nM.

Regarding `C=CC(=O)Nc1ccc(Sc2nc(Nc3ccc(OC)c(O)c3)ncc2C)cc1` [Compound 283, N-(4-(2-(3-hydroxy-4-methoxyphenylao)-5-methylpyrimidin-4-ylthio)phenyl)acrylamide], the figures for the IC50 with BaF3 wild-type cells, at human JAK3 and at human JAK2 were less than 20000 nM, less than 100 nM and more than 1000 nM, respectively.

As for `C=CC(=O)Nc1ccc(Sc2nc(Nc3ccccc3O)ncc2C)cc1` [Compound 287, N-(4-(2-(2-hydroxyphenylao)-5-methylpyrimidin-4-ylthio)phenyl)acrylamide], the IC50 on human JAK3 was less than 100 nM; at human JAK2 it was more than 1000 nM.

Regarding `C=CC(=O)Nc1ccc(Sc2ccnc(Nc3cccc(Cl)c3)n2)cc1` [Compound 348, N-(4-(2-(3-chlorophenylao)pyrimidin-4-ylthio)phenyl)acrylamide], the IC50 on human JAK3 was less than 100 nM; on human JAK2, more than 1000 nM.

Values taken from US8846704B2, “Thiopyrimidine-based compounds and uses thereof” (YM Biosciences Austraila Pty Ltd, priority 2007, dated 2014).
